The results in this text go back to ChEMBL document CHEMBL5143517, “Discovery and radiosensitization research of ursolic acid derivatives as SENP1 inhibitors” (Eur J Med Chem, 2022).

The nature of this series: Cytotoxicity against human HeLa cells assessed as inhibition of cell growth incubated for 72 hrs by CCK-8 assay. Format: toxicity, cell-based. For orientation: Tetrazolium assays rely on reduction of a dye to a coloured formazan, in cell work by metabolically active cells.

Molecules are shown by their SMILES.

By IC50 is commonly meant the concentration that inhibits the measured activity by half.

In the case of `COC(=O)CNC(=O)[C@]12CC[C@@H](C)[C@H](C)[C@H]1C1=CC[C@@H]3[C@@]4(C)CC[C@H](OC(C)=O)C(C)(C)[C@@H]4CC[C@@]3(C)[C@]1(C)CC2`, the 50% inhibitory concentration (IC50) at 72 h is greater than 20 µM.

For `C[C@H]1[C@H](C)CC[C@]2(C(=O)OCCN3CCOCC3)CC[C@]3(C)C(=CC[C@@H]4[C@@]5(C)CC[C@H](O)C(C)(C)[C@@H]5CC[C@]43C)[C@H]12`, the concentration for half-maximal inhibition (IC50) at 72 h is greater than 20 µM.

For `CC(=O)O[C@H]1CC[C@]2(C)[C@H]3CC=C4[C@@H]5[C@@H](C)[C@H](C)CC[C@]5(C(=O)NCC(N)=O)CC[C@@]4(C)[C@]3(C)CC[C@H]2C1(C)C`, the IC50 at 72 h is greater than 20 µM.

`C[C@H]1[C@H](C)CC[C@]2(C(=O)OCc3ccccc3)CC[C@]3(C)C(=CC[C@@H]4[C@@]5(C)CC[C@H](O)C(C)(C)[C@@H]5CC[C@]43C)[C@H]12`: the IC50 at 72 h is greater than 20 µM.

Take `COC(=O)[C@]12CC[C@@H](C)[C@H](C)[C@H]1C1=CC[C@@H]3[C@@]4(C)CC[C@H](OC(C)=O)C(C)(C)[C@@H]4CC[C@@]3(C)[C@]1(C)CC2`: the IC50 at 72 h was greater than 20 µM.

In the case of `COC(=O)[C@@H]1CCCN1CCOC(=O)[C@]12CC[C@@H](C)[C@H](C)[C@H]1C1=CC[C@@H]3[C@@]4(C)CC[C@H](O)C(C)(C)[C@@H]4CC[C@@]3(C)[C@]1(C)CC2`, the IC50 at 72 h was greater than 20 µM.

Take `C[C@H]1[C@H](C)CC[C@]2(C(=O)OCCBr)CC[C@]3(C)C(=CC[C@@H]4[C@@]5(C)CC[C@H](O)C(C)(C)[C@@H]5CC[C@]43C)[C@H]12`: the IC50 at 72 h was greater than 20 µM.

`C[C@H]1[C@H](C)CC[C@]2(C(=O)NCCBr)CC[C@]3(C)C(=CC[C@@H]4[C@@]5(C)CC[C@H](O)C(C)(C)[C@@H]5CC[C@]43C)[C@H]12`: the half-maximal inhibitory concentration (IC50) at 72 h was greater than 20 µM.

On to `CC(=O)O[C@H]1CC[C@]2(C)[C@H]3CC=C4[C@@H]5[C@@H](C)[C@H](C)CC[C@]5(C(=O)NCCBr)CC[C@@]4(C)[C@]3(C)CC[C@H]2C1(C)C`, for which the half-inhibitory concentration (IC50) at 72 h is greater than 20 µM.

For the compound `C[C@H]1[C@H](C)CC[C@]2(C(=O)OCCN3CCN(CCO)CC3)CC[C@]3(C)C(=CC[C@@H]4[C@@]5(C)CC[C@H](O)C(C)(C)[C@@H]5CC[C@]43C)[C@H]12`, the IC50 at 72 h is greater than 20 µM.

On to `COC(=O)[C@]12CC[C@@H](C)[C@H](C)[C@H]1C1=CC[C@@H]3[C@@]4(C)CC[C@H](OC=O)C(C)(C)[C@@H]4CC[C@@]3(C)[C@]1(C)CC2`, for which the IC50 at 72 h is greater than 20 µM.

Consider `C[C@H]1[C@H](C)CC[C@]2(C(=O)NCC(N)=O)CC[C@]3(C)C(=CC[C@@H]4[C@@]5(C)CC[C@H](O)C(C)(C)[C@@H]5CC[C@]43C)[C@H]12`, for which the IC50 at 72 h was greater than 20 µM.

As for `C[C@H]1[C@H](C)CC[C@]2(C(=O)N3CCC[C@H]3C(=O)O)CC[C@]3(C)C(=CC[C@@H]4[C@@]5(C)CC[C@H](O)C(C)(C)[C@@H]5CC[C@]43C)[C@H]12`, the half-maximal inhibitory concentration (IC50) at 72 h is greater than 20 µM.

Take `CNC(=O)CN(C)C(=O)[C@]12CC[C@@H](C)[C@H](C)[C@H]1C1=CC[C@@H]3[C@@]4(C)CC[C@H](OC(C)=O)C(C)(C)[C@@H]4CC[C@@]3(C)[C@]1(C)CC2`: the IC50 at 72 h was greater than 20 µM.

For the compound `C[C@H]1[C@H](C)CC[C@]2(C(=O)OCCNC(=O)OC(C)(C)C)CC[C@]3(C)C(=CC[C@@H]4[C@@]5(C)CC[C@H](O)C(C)(C)[C@@H]5CC[C@]43C)[C@H]12`, the IC50 at 72 h is greater than 20 µM.

For the compound `C[C@H]1[C@H](C)CC[C@]2(C(=O)OCCCCBr)CC[C@]3(C)C(=CC[C@@H]4[C@@]5(C)CC[C@H](O)C(C)(C)[C@@H]5CC[C@]43C)[C@H]12` [BROMOBUTYL-3BETA-HYDROXY-URS-12-EN-28-OATE], the IC50 at 72 h is greater than 20 µM.

As for `C[C@H]1[C@H](C)CC[C@]2(C(=O)OCCN3CCNC(=O)C3)CC[C@]3(C)C(=CC[C@@H]4[C@@]5(C)CC[C@H](O)C(C)(C)[C@@H]5CC[C@]43C)[C@H]12`, the IC50 at 72 h is greater than 20 µM.

Regarding `C[C@H]1[C@H](C)CC[C@]2(C(=O)NCC(=O)O)CC[C@]3(C)C(=CC[C@@H]4[C@@]5(C)CC[C@H](O)C(C)(C)[C@@H]5CC[C@]43C)[C@H]12`, the IC50 at 72 h is greater than 20 µM.

`C[C@H]1[C@H](C)CC[C@]2(C(=O)NCC(=O)N(C)CCO)CC[C@]3(C)C(=CC[C@@H]4[C@@]5(C)CC[C@H](O)C(C)(C)[C@@H]5CC[C@]43C)[C@H]12`: the IC50 at 72 h was greater than 20 µM.

Regarding `COC(=O)CN(C)C(=O)[C@]12CC[C@@H](C)[C@H](C)[C@H]1C1=CC[C@@H]3[C@@]4(C)CC[C@H](OC(C)=O)C(C)(C)[C@@H]4CC[C@@]3(C)[C@]1(C)CC2`, the IC50 at 72 h was greater than 20 µM.

As for `CNC(=O)CCNC(=O)[C@]12CC[C@@H](C)[C@H](C)[C@H]1C1=CC[C@@H]3[C@@]4(C)CC[C@H](OC(C)=O)C(C)(C)[C@@H]4CC[C@@]3(C)[C@]1(C)CC2`, the IC50 at 72 h was greater than 20 µM.

With `C[C@H]1[C@H](C)CC[C@]2(C(=O)OCC3CCN(C(=O)OC(C)(C)C)CC3)CC[C@]3(C)C(=CC[C@@H]4[C@@]5(C)CC[C@H](O)C(C)(C)[C@@H]5CC[C@]43C)[C@H]12`, the IC50 at 72 h is greater than 20 µM.

Regarding `C[C@H]1[C@H](C)CC[C@]2(C(N)=O)CC[C@]3(C)C(=CC[C@@H]4[C@@]5(C)CC[C@H](O)C(C)(C)[C@@H]5CC[C@]43C)[C@H]12`, the IC50 at 72 h was greater than 20 µM.

With `C[C@H]1[C@H](C)CC[C@]2(C(=O)OCCN3CCNCC3)CC[C@]3(C)C(=CC[C@@H]4[C@@]5(C)CC[C@H](O)C(C)(C)[C@@H]5CC[C@]43C)[C@H]12`, the IC50 at 72 h was greater than 20 µM.

For the compound `COC(=O)CCNC(=O)[C@]12CC[C@@H](C)[C@H](C)[C@H]1C1=CC[C@@H]3[C@@]4(C)CC[C@H](OC(C)=O)C(C)(C)[C@@H]4CC[C@@]3(C)[C@]1(C)CC2`, the IC50 at 72 h is greater than 20 µM.

For the compound `C[C@H]1[C@H](C)CC[C@]2(C(=O)NCC(=O)NCCO)CC[C@]3(C)C(=CC[C@@H]4[C@@]5(C)CC[C@H](O)C(C)(C)[C@@H]5CC[C@]43C)[C@H]12`, the 50% inhibitory concentration (IC50) at 72 h is greater than 20 µM.

For the compound `C[C@H]1[C@H](C)CC[C@]2(C(=O)OCCCCN3CCOCC3)CC[C@]3(C)C(=CC[C@@H]4[C@@]5(C)CC[C@H](O)C(C)(C)[C@@H]5CC[C@]43C)[C@H]12`, the IC50 at 72 h is greater than 20 µM.

Take `CC(=O)O[C@H]1CC[C@]2(C)[C@H]3CC=C4[C@@H]5[C@@H](C)[C@H](C)CC[C@]5(C(=O)NCC(=O)O)CC[C@@]4(C)[C@]3(C)CC[C@H]2C1(C)C`: the 50% inhibitory concentration (IC50) at 72 h is greater than 20 µM.

Regarding `CNC(=O)COC(=O)[C@]12CC[C@@H](C)[C@H](C)[C@H]1C1=CC[C@@H]3[C@@]4(C)CC[C@H](O)C(C)(C)[C@@H]4CC[C@@]3(C)[C@]1(C)CC2`, the IC50 at 72 h is greater than 20 µM.

For the compound `C[C@H]1[C@H](C)CC[C@]2(C(=O)OCCN3CCCCC3)CC[C@]3(C)C(=CC[C@@H]4[C@@]5(C)CC[C@H](O)C(C)(C)[C@@H]5CC[C@]43C)[C@H]12`, the IC50 at 72 h is greater than 20 µM.

Take `C[C@H]1[C@H](C)CC[C@]2(C(=O)NCC(=O)N(CCO)CCO)CC[C@]3(C)C(=CC[C@@H]4[C@@]5(C)CC[C@H](O)C(C)(C)[C@@H]5CC[C@]43C)[C@H]12`: the IC50 at 72 h is greater than 20 µM.

As for `C[C@H]1[C@H](C)CC[C@]2(C(=O)N[C@@H](C)c3ccccc3)CC[C@]3(C)C(=CC[C@@H]4[C@@]5(C)CC[C@H](O)C(C)(C)[C@@H]5CC[C@]43C)[C@H]12`, the IC50 at 72 h is greater than 20 µM.

In the case of `CC(=O)O[C@H]1CC[C@]2(C)[C@H]3CC=C4[C@@H]5[C@@H](C)[C@H](C)CC[C@]5(C(=O)O)CC[C@@]4(C)[C@]3(C)CC[C@H]2C1(C)C` [O-ACETYLURSOLIC ACID], the IC50 at 72 h was greater than 20 µM.

Take `CC(=O)O[C@H]1CC[C@]2(C)[C@H]3CC=C4[C@@H]5[C@@H](C)[C@H](C)CC[C@]5(C(N)=O)CC[C@@]4(C)[C@]3(C)CC[C@H]2C1(C)C`: the IC50 at 72 h was greater than 20 µM.

On to `CNC(=O)CCNC(=O)[C@]12CC[C@@H](C)[C@H](C)[C@H]1C1=CC[C@@H]3[C@@]4(C)CC[C@H](O)C(C)(C)[C@@H]4CC[C@@]3(C)[C@]1(C)CC2`, for which the IC50 at 72 h is greater than 20 µM.

Turning to `C[C@H]1[C@H](C)CC[C@]2(C(=O)OCCN3CCN(C)CC3)CC[C@]3(C)C(=CC[C@@H]4[C@@]5(C)CC[C@H](O)C(C)(C)[C@@H]5CC[C@]43C)[C@H]12`, the IC50 at 72 h is greater than 20 µM.

For the compound `C[C@H]1[C@H](C)CC[C@]2(C(=O)OCCCCN3CCNCC3)CC[C@]3(C)C(=CC[C@@H]4[C@@]5(C)CC[C@H](O)C(C)(C)[C@@H]5CC[C@]43C)[C@H]12`, the concentration for half-maximal inhibition (IC50) at 72 h was found to be 5.7 µM.

Consider `CNC(=O)CNC(=O)[C@]12CC[C@@H](C)[C@H](C)[C@H]1C1=CC[C@@H]3[C@@]4(C)CC[C@H](OC(C)=O)C(C)(C)[C@@H]4CC[C@@]3(C)[C@]1(C)CC2`, for which the IC50 at 72 h is greater than 20 µM.

`COC(=O)[C@]12CC[C@@H](C)[C@H](C)[C@H]1C1=CC[C@@H]3[C@@]4(C)CC[C@H](O)C(C)(C)[C@@H]4CC[C@@]3(C)[C@]1(C)CC2` [METHYL URSOLATE]: the IC50 at 72 h is greater than 20 µM.

As to `C[C@H]1[C@H](C)CC[C@]2(C(=O)NCCC(=O)O)CC[C@]3(C)C(=CC[C@@H]4[C@@]5(C)CC[C@H](O)C(C)(C)[C@@H]5CC[C@]43C)[C@H]12`, the IC50 at 72 h was greater than 20 µM.

Take `C[C@H]1[C@H](C)CC[C@]2(C(=O)OCCN3CCN(c4cccc(C(F)(F)F)c4)CC3)CC[C@]3(C)C(=CC[C@@H]4[C@@]5(C)CC[C@H](O)C(C)(C)[C@@H]5CC[C@]43C)[C@H]12`: the concentration for half-maximal inhibition (IC50) at 72 h was greater than 20 µM.

Consider `C[C@H]1[C@H](C)CC[C@]2(C(=O)N(C)CC(=O)O)CC[C@]3(C)C(=CC[C@@H]4[C@@]5(C)CC[C@H](O)C(C)(C)[C@@H]5CC[C@]43C)[C@H]12`, for which the IC50 at 72 h was greater than 20 µM.

Take `C[C@H]1[C@H](C)CC[C@]2(C(=O)OCCO)CC[C@]3(C)C(=CC[C@@H]4[C@@]5(C)CC[C@H](O)C(C)(C)[C@@H]5CC[C@]43C)[C@H]12`: the IC50 at 72 h was greater than 20 µM.

Regarding `C[C@H]1[C@H](C)CC[C@]2(C(=O)OCC(=O)N(C)CCO)CC[C@]3(C)C(=CC[C@@H]4[C@@]5(C)CC[C@H](O)C(C)(C)[C@@H]5CC[C@]43C)[C@H]12`, the IC50 at 72 h is greater than 20 µM.
